Source: patent US8673938B2, “Chemical compounds” (priority 2006, dated 2014)

These compounds were tested against human 11βHSD1 enzyme (Homo sapiens (Human), UniProt P28845) (assay: biochemical). Conditions: read-out: % inhibition of human 11-βHSD.
human 11βHSD1 enzyme, sequence (P28845 whole entry): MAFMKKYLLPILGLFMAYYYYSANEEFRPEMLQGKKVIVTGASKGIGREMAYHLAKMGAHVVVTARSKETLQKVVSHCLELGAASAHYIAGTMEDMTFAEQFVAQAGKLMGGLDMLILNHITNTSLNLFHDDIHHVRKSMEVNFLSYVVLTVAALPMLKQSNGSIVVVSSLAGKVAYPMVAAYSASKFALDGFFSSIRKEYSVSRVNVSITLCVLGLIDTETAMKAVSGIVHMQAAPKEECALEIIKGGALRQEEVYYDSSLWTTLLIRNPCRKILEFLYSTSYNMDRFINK
Description: The evaluation of compounds described herein was carried out using a baculovirus expressed N terminal 6-His tagged full length human 11βHSD1 enzyme(*1). […] Inhibitors of 11βHSD1 reduce the conversion of cortisone to cortisol, which is identified by an increase in signal, in the above assay.
Compounds to be tested were dissolved in dimethyl sulphoxide (DMSO) to 10 mM and diluted further in assay buffer containing 1% DMSO to 10 fold the final assay concentration. Diluted compounds were then plated into black 384 well plates (Matrix, Hudson N.H., USA).
The assay plates were incubated for 25 minutes at 37° C. after which time the reaction was stopped by the addition of 10 μl of 0.5 mM glycerrhetinic acid plus conjugated cortisol (XL665 or D2). 10 μl of anti-cortisol Cryptate was then added and the plates sealed and incubated for 6 hours at room temperature.

Compound	inhibition at 30 µM [%]
CCCSc1nc(N2CCC(C(=O)O)C2)ccc1C(=O)N[C@H]1C2CC3CC1C[C@@](O)(C3)C2 (some centres unmarked) [Example 89, 1-[5-[[(2r,5s)-5-hydroxy-2-adamantyl]carbamoyl]-6-propylsulfanyl-pyridin-2-yl]pyrrolidine-3-carboxylic acid]	85
CCCSc1nc(N2CCC[C@@H](CC(=O)O)C2)ccc1C(=O)N1CCCCC1 [Example 115, 2-[(3S)-1-[5-(piperidine-1-carbonyl)-6-propylsulfanyl-pyridin-2-yl]-3-piperidyl]acetic acid]	93
O=C(O)C[C@@H]1CCCN(c2ccc(C(=O)N[C@H]3C4CC5CC3C[C@](OC(F)F)(C5)C4)c(SC3CCCCC3)n2)C1 [Example 176, 2-[(3S)-1-[6-Cyclohexylsulfanyl-5-[[(2r,5s)-5-(difluoromethoxy)-2-adamantyl]carbamoyl]pyridin-2-yl]-3-piperidyl]acetic acid]	92
CCCSc1nc(N2CCC[C@@H](CC(=O)O)C2)ccc1C(=O)N[C@H]1CC[C@H](O)CC1 [Example 125, 2-[(3S)-1-[5-[(4-hydroxycyclohexyl)carbamoyl]-6-propylsulfanyl-pyridin-2-yl]-3-piperidyl]acetic acid]	102
O=C(O)C[C@@H]1CCCN(c2ccc(C(=O)NC3CCCCC3)c(SC3CCCC3)n2)C1 [Example 52, 2-[(3S)-1-[5-(cyclohexylcarbamoyl)-6-cyclopentylsulfanyl-pyridin-2-yl]-3-piperidyl]acetic acid]	92
O=C(N[C@H]1C2CC3CC1C[C@@](O)(C3)C2)c1ccc(N2CCC[C@H]2C(=O)O)nc1SC1CCCC1 [Example 97, (2S)-1-[6-cyclopentylsulfanyl-5-[((2r,5s)-5-hydroxy-2-adamantyl)carbamoyl]pyridin-2-yl]pyrrolidine-2-carboxylic acid]	97
O=C(O)C[C@H]1CCN(c2ccc(C(=O)N[C@H]3C4CC5CC3C[C@@](O)(C5)C4)c(SC3CCCC3)n2)C1 [Example 95, 2-[(3R)-1-[6-cyclopentylsulfanyl-5-[((2r,5s)-5-hydroxy-2-adamantyl)carbamoyl]pyridin-2-yl]pyrrolidin-3-yl]acetic acid]	88
O=C(N[C@H]1C2CC3CC1C[C@](OC(F)F)(C3)C2)c1ccc(N2CC[C@@H](C(=O)O)C2)nc1SC1CCCC1 [Example 182, (3R)-1-[6-cyclopentylsulfanyl-5-[[(2r,5s)-5-(difluoromethoxy)-2-adamantyl]carbamoyl]pyridin-2-yl]pyrrolidine-3-carboxylic acid]	91
CCCSc1nc(N2CC(OCC(=O)O)C2)ccc1C(=O)NC1CCCCC1 [Example 40, 2-[1-[5-(cyclohexylcarbamoyl)-6-propylsulfanyl-pyridin-2-yl]azetidin-3-yl]oxyacetic acid]	87
CCCSc1nc(N2CC[C@@H](CC(=O)O)C2)ccc1C(=O)NC1C2CC3CC1CC(O)(C3)C2 (stereo partly drawn) [Example 79, 2-[(3S)-1-[5-[((2r,5s)-5-hydroxy-2-adamantyl)carbamoyl]-6-propylsulfanyl-pyridin-2-yl]pyrrolidin-3-yl]acetic acid]	90
CCCCc1nc(N2CC3C(C2)C3C(=O)O)ccc1C(=O)NC1C2CC3CC(C2)CC1C3 (centres unmarked) [Example 163, 3-[5-(2-adamantylcarbamoyl)-6-butyl-pyridin-2-yl]-3-azabicyclo[3.1.0]hexane-6-carboxylic acid]	93
CCCSc1nc(N2CCC[C@@H](CC(=O)O)C2)ccc1C(=O)NC1CCOCC1 [Example 173]	92
CCCSc1nc(Sc2ccc(OCC(=O)O)cc2)ccc1C(=O)NC1CCCCC1 [Example 19, 2-[4-[5-(cyclohexylcarbamoyl)-6-propylsulfanyl-pyridin-2-yl]sulfanylphenoxy]acetic acid]	61
O=C(O)C[C@@H]1CCCN(c2ccc(C(=O)N3CCC(c4cccnc4)C3)c(SC3CCCC3)n2)C1 (stereo partly drawn) [Example 127, 2-[(3S)-1-[6-cyclopentylsulfanyl-5-(3-pyridin-3-ylpyrrolidine-1-carbonyl)pyridin-2-yl]-3-piperidyl]acetic acid]	96
CCCSc1nc(N2CC[C@H](CC(=O)O)C2)ccc1C(=O)N[C@H]1C2CC3CC1C[C@@](O)(C3)C2 [Example 90, 2-[(3R)-1-[5-[[(2r,5s)-5-hydroxy-2-adamantyl]carbamoyl]-6-propylsulfanyl-pyridin-2-yl]pyrrolidin-3-yl]acetic acid]	88
O=C(O)C[C@@H]1CCCN(c2ccc(C(=O)NC3CCCCC3)c(N3CCN(C(=O)OCc4ccccc4)CC3)n2)C1 [compound 150, 2-[(3S)-1-[5-(cyclohexylcarbamoyl)-6-(4-phenylmethoxy-carbonylpiperazin-1-yl)pyridin-2-yl]-3-piperidyl]acetic acid]	74
CCCSc1nc(N2CCCC(OC(C)C(=O)O)C2)ccc1C(=O)NC1CCCCC1 (centres unmarked) [Example 44]	85
CCCSc1nc(Oc2ccc(C(C)C(=O)O)cc2)ccc1C(=O)NC1CCCCC1 (centres unmarked) [Example 21, 2-[4-[5-(cyclohexylcarbamoyl)-6-propylsulfanyl-pyridin-2-yl]oxyphenyl]propanoic acid]	88

Compound	inhibition at 30 µM [%]
CC(C)CCSc1nc(N2C[C@@H]3[C@H](C2)[C@H]3C(=O)O)ccc1C(=O)N[C@H]1C2CC3CC1C[C@@](O)(C3)C2 [Example 106, (1R,5S)-3-[5-[((2r,5s)-5-hydroxy-2-adamantyl)carbamoyl]-6-(3-methylbutylsulfanyl)pyridin-2-yl]-3-azabicyclo[3.1.0]hexane-6-carboxylic acid]	95
CCCSc1nc(N2CCOC(C(=O)O)C2)ccc1C(=O)NC1CCCCC1 (centres unmarked) [Example 51, 4-[5-(cyclohexylcarbamoyl)-6-propylsulfanyl-pyridin-2-yl]morpholine-2-carboxylic acid]	90
CC(C)CCSc1nc(N2CCC[C@@H](CC(=O)O)C2)ccc1C(=O)NC1C2CC3CC1CC(O)(C3)C2 (stereo partly drawn) [Example 104, 2-[(3S)-l-[5-[[(2r,5s)-5-hydroxy-2-adamantyl]carbamoyl)-6-(3-methylbutylsulfanyl)pyridin-2-yl]-3-piperidyl]acetic acid]	87
CCCSc1nc(N(C)[C@H]2CC[C@H](C(=O)O)CC2)ccc1C(=O)NC1CCCCC1 [Example 11, 4-[[5-(cyclohexylcarbamoyl)-6-propylsulfanyl-pyridin-2-yl]-methyl-amino]cyclohexane-1-carboxylic acid]	83
CCCSc1nc(N2CCCC(CCC(=O)O)C2)ccc1C(=O)NC1CCCCC1 (centres unmarked) [Example 39, 3-[1-[5-(cyclohexylcarbamoyl)-6-propylsulfanyl-pyridin-2-yl]-3-piperidyl]propanoic acid]	74
CCCSc1nc(N2C[C@@H]3[C@H](C2)[C@H]3C(=O)O)ccc1C(=O)NC1C2CC3CC(C2)CC1C3 (stereo partly drawn) [Example 66, (1S,5R)-3-[5-(2-adamantylcarbamoyl)-6-propylsulfanylpyridin-2-yl]-3-azabicyclo[3.1.0]hexane-6-carboxylic acid]	89
O=C(O)C[C@@H]1CCCN(c2ccc(C(=O)NC3CCCCC3)c(SCCc3ccccc3)n2)C1 [Example 130, 2-[(3S)-1-[5-(cyclohexylcarbamoyl)-6-phenethylsulfanyl-pyridin-2-yl]-3-piperidyl]acetic acid]	91
CCCSc1nc(Oc2ccc(CCC(=O)O)cc2)ccc1C(=O)NC1CCCCC1 [Example 18, 3-[4-[5-(cyclohexylcarbamoyl)-6-propylsulfanyl-pyridin-2-yl]oxyphenyl]propanoic acid]	81
CCCSc1nc(N2CCC[C@@H](CC(=O)O)C2)ccc1C(=O)N1CCC(c2ccccc2C(F)(F)F)C1 (stereo partly drawn) [Example 126, 2-[(3S)-1-[6-propylsulfanyl-5-[3-[2-(trifluoromethyl)phenyl]pyrrolidine-1-carbonyl]pyridin-2-yl]-3-piperidyl]acetic acid]	87
O=C(O)C[C@@H]1CCCN(c2ccc(C(=O)NC3CCCCC3)c(NCCc3ccc(Cl)cc3)n2)C1 [compound 142, 2-[(3S)-1-[6-[2-(4-chlorophenyl)ethylamino]-5-(cyclohexylcarbamoyl)pyridin-2-yl]-3-piperidyl]acetic acid]	94
CCCSc1nc(N2CC[C@H](CC(=O)O)C2)ccc1C(=O)NC1C2CC3CC(C2)CC1C3 (stereo partly drawn) [Example 64, 2-[(3R)-1-[5-(2-adamantylcarbamoyl)-6-propylsulfanyl-pyridin-2-yl]pyrrolidin-3-yl]acetic acid]	89
CCCSc1nc(N2CCN(CC(=O)O)CC2)ccc1C(=O)NC1CCCCC1 [Example 8, 2-[4-[5-(cyclohexylcarbamoyl)-6-propylsulfanyl-pyridin-2-yl]piperazin-1-yl]acetic acid]	78
O=C(O)C[C@@H]1CCCN(c2ccc(C(=O)NC3CCCCC3)c(SCCc3cnccn3)n2)C1 [compound 132, 2-[(3S)-1-[5-(cyclohexyl-carbamoyl)-6-(2-pyrazin-2-ylethylsulfanyl)pyridin-2-yl]-3-piperidyl] acetic acid]	98
COc1nc(N2CCC[C@@H](CC(=O)O)C2)ccc1C(=O)NC1CCCCC1 [compound 139, 2-[(3S)-1-[5-(cyclohexyl-carbamoyl)-6-methoxy-pyridin-2-yl]-3-piperidyl] acetic acid]	89
CCCSc1nc(N2CCCC(CC(=O)O)C2)ccc1C(=O)NC1CCCCC1 (centres unmarked) [Example 5, 2-[1-[5-(cyclohexylcarbamoyl)-6-propylsulfanyl-pyridin-2-yl]-3-piperidyl]acetic acid]	86
O=C(O)C[C@H]1CCCN(c2ccc(C(=O)NC3CCCCC3)c(SCCc3ccccc3)n2)C1 [Example 129, 2-[(3R)-1-[5-(cyclohexylcarbamoyl)-6-phenethylsulfanyl-pyridin-2-yl]-3-piperidyl]acetic acid]	82
CCCSc1nc(N2CCC(C3(C(=O)O)CCC3)CC2)ccc1C(=O)NC1CCCCC1 [Example 49, 1-[1-[5-(cyclohexylcarbamoyl)-6-propylsulfanyl-pyridin-2-yl]-4-piperidyl]cyclobutane-1-carboxylic acid]	77
